Results published in US4565830A, “Method of ameliorating the subjective symptoms and objective signs in congestive heart failure” (priority 1981, dated 1986).
Like-named read-outs stand apart in the source and are kept apart here.

Tests used:
[1] = test system: patients with heart failure; assay type: in vivo, human patients; set-up: key to Severity After, Score: summed symptom/sign points; higher = worse heart failure; details: for Severity After, Score / Severity After, NYHA: 2 g twice daily, granules
Description: Twenty-four patients with heart failure were administered every day, two doses containing 2 g each of taurine as granules, and then monitored. The underlying cause of heart failure and the combined therapeutic agents (+: combined, -: not combined) for each patient are shown in Table 2. The therapeutic agents combined with taurine were standard agents which have long been used. Most of the patients had not been improved or have been even worsened under the therapeutic agents in Table 2, prior to the new therapeutic modality of this invention being used. The severity of heart failure was expressed by NYHA Function Class (I to IV, mild to severe according to New York Heart Association) and a score based on observation of clinical symptoms and signs as shown in Table 3. The presence of a symptom or sign was given the point value indicated in the right column and the values for each of the symptoms and signs were summed up for the score. An increase in the score corresponds to a worsening in the patient's heart condition. […]

guinea pigs = details: Dietrich & Diacono 1971; cited from earlier work
[2] = Acute toxicity in Wistar male mice; assay type: in vivo
Description: Each of 10 Wistar male mice, weighing 16-18 g, was administered with 7 g/kg of taurine (as an aqueous solution of 100 ml/kg).

[3] = 7 g/kg as aqueous solution 100 ml/kg, 7 days observation, route not given

## NCCS(=O)(=O)O [taurine, 2-aminoethanesulfonic acid]
[1]; human, in vivo
  adverse reaction: without any adverse reaction
[1]; patient 1, week 20, before 7.5, with digitalis
  Severity After, Score: 2
[1]; patient 1, week 20, before II, with digitalis
  Severity After, NYHA: I
[1]; patient 2, week 4, before 6.5, with digitalis, diuretics
  Severity After, Score: 6.5
[1]; patient 3, week 8, before 13, with digitalis, diuretics
  Severity After, Score: 5
[1]; patient 4, week 32, before 12, with digitalis, diuretics, vasodilators
  Severity After, Score: 2.5
[1]; patient 4, week 32, before III, with digitalis, diuretics, vasodilators
  Severity After, NYHA: I
[1]; patient 5, week 8, before 10, with digitalis, diuretics
  Severity After, Score: 2.5
[1]; patient 6, week 8, before 5, no combined agent
  Severity After, Score: 2.5
[1]; patient 7, week 8, before 6, with digitalis, diuretics
  Severity After, Score: 3
[1]; patient 8, week 4, before 6, with digitalis, diuretics
  Severity After, Score: 5
[1]; patient 9, week 4, before 4, no combined agent
  Severity After, Score: 3
[1]; patient 10, week 4, before 9.5, with diuretics, vasodilators
  Severity After, Score: 5
[1]; patient 11, week 6, before 9.5, with diuretics, vasodilators
  Severity After, Score: 6
[1]; patient 12, week 2, before 3.5, no combined agent
  Severity After, Score: 3.5
[1]; patient 13, week 2, before 8.5, with diuretics
  Severity After, Score: 7.5
[1]; patient 14, week 2, before 3.5, with diuretics
  Severity After, Score: 3
[1]; patient 15, week 4, before 4.5, with diuretics
  Severity After, Score: 1
[1]; patient 16, week 4, before 5, with digitalis, diuretics, vasodilators
  Severity After, Score: 0.5
[1]; patient 17, week 4, before 9, with digitalis, diuretics
  Severity After, Score: 1
[1]; patient 18, week 4, before 13, with digitalis, diuretics
  Severity After, Score: 9
[1]; patient 19, week 4, before 5.5, with digitalis, diuretics
  Severity After, Score: 4.5
[1]; patient 20, week 2, before 5, with diuretics
  Severity After, Score: 3
[1]; patient 21, week 4, before 9.5, combined agent ambiguous (none / diuretics)
  Severity After, Score: 4
[1]; patient 22, week 4, before 4.5, with diuretics
  Severity After, Score: 3
[1]; patient 23, week 4, before 5.5, no combined agent
  Severity After, Score: 5.5
[1]; patient 24, week 4, before 9, with digitalis, diuretics
  Severity After, Score: 4
[1]; patients not controllable or worsened under prolonged conventional agents
  improvement with combined use of taurine: unexpectedly improved
[1]; patients with heart failure, general statement
  subjective symptoms and objective signs of heart failure: effectively ameliorates the subjective symptoms and objective signs of heart failure
Guinea pigs
  positive inotropic activity: positive inotropic activity
[2]; [3]
  behavioral changes: nor behavioral changes
  death: neither death
[2]; intravenous, same results = neither death nor behavioral changes
  death and behavioral changes: the same results were obtained
